Results published in patent US12185750B2, “Acyl nornicotines reduce sensory irritation in tobacco and nicotine products” (Altria Client Services LLC, priority 2015, dated 2025).
Where two headings read alike, the source gives them in different places.

Legend:
[1] = half-tongue test: acyl nornicotine pre-treatment before nicotine solution; format: in vivo, human
Description: The effect of pre-treatment with acyl nornicotine on sensory irritation from nicotine was tested using half-tongue test. N-Octanoylnornicotine was applied to tongues of human volunteers prior to application of a nicotine solution. Randomized sides of tongues were selected for application of liquid test sample or liquid control sample on filter paper. The liquid test sample or liquid control sample was applied to one side of a subject's tongue or the other. Blinded N-Octanoylnornicotine or water on filter paper was applied to the subject's tongue for 2 minutes, and then removed. […] After a 30 second wait, filter papers with added nicotine solutions were applied to the spots on the tongue where the pre-treatment filter papers had been applied. Over the following 2 minutes, subjects were asked to note sensory perceptions. Samples containing N-Octanoylnornicotine were at 10% of the level of the nicotine challenge samples.

[2] = tested on: nicotine triggered release of CGRP in tracheal tissue; assay: nicotine triggered CGRP release in mouse tracheal tissue; format: cell-based
Description: Mouse tracheal tissue samples are treated with N-Hexanoylnornicotine (10 μM) for 10 minutes. After five minutes of exposure, Nicotine (100 μM) is added to the tracheal tissue samples for the remaining five minutes of N-Hexanoylnornicotine exposure. CGRP release is measured for 15 minutes starting at the time point of N-Hexanoylnornicotine exposure. Control samples are exposed to Nicotine (100 μM) without the addition of N-Hexanoylnornicotine. […]
(§1) FIGS. 2-8 show the results of studies on the effect of acyl nornicotine on nicotine triggered release of CGRP. CGRP is a biomarker of sensory irritation, specifically a marker of neurogenic inflammation. Tracheal or buccal mouse tissue samples were each treated with N-Hexanoylnornicotine or N-Octanoylnornicotine prior to exposure to nicotine or potassium chloride (KCl), used as a control. The test compounds were provided in a synthetic interstitial fluid and the release of CGRP was measured.

[3] = tested on: nicotine triggered release of CGRP in buccal tissue; assay: nicotine triggered CGRP release in mouse buccal tissue; format: cell-based; conditions: for effect on buccal nicotine response (CGRP release): 20 mM compound, Nicotine 20 mM, equimolar, FIG. 8
Description: Mouse buccal tissue samples are treated with 10 μM or 1 μM of N-Hexanoylnornicotine for 10 minutes. After five minutes of exposure, Nicotine (10 mM) is added to the buccal tissue samples for five minutes. CGRP release is measured for 15 minutes starting at the time point of N-Hexanoylnornicotine exposure. Control samples are exposed to Nicotine (10 mM) without the addition of N-Hexanoylnornicotine.
Mouse buccal tissue samples were treated with N-Hexanoylnornicotine (20 mM) or N-Octanoylnornicotine (20 mM) for 10 minutes. After 5 minutes of exposure, Nicotine (20 mM) was added to the […] tissue samples for five minutes. CGRP release is measured for 20 minutes starting five minutes prior to the time point of N-Octanoylnornicotine and N-Hexanoylnornicotine exposure. Control samples are exposed to Nicotine (20 mM) without the addition of N-Octanoylnornicotine or N-Hexanoylnornicotine.
as §1

[4] = target: T1, human nicotinic acetylcholine receptor α3β4 (nACHR α3β4) (Homo sapiens, UniProt P30926+P32297); assay: calcium influx in HEK293 cells expressing nACHR α3β4, co-applied with nicotine; format: cell-based
T1 construct: expressed in transfected cells; host or cells: HEK293
T1 sequence (P32297 32-505): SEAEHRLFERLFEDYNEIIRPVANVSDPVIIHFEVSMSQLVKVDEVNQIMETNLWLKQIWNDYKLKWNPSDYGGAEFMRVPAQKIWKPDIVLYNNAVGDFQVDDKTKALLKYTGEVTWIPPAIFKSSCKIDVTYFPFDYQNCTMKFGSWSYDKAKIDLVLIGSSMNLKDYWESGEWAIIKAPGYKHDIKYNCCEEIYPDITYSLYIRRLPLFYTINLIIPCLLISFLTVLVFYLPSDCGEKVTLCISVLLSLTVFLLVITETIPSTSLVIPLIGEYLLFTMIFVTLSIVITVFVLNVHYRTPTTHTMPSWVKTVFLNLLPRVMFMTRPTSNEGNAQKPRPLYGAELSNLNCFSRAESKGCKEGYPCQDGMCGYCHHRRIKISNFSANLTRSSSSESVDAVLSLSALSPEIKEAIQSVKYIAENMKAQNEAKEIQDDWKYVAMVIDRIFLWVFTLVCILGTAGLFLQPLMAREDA
T1 sequence (P30926 22-498): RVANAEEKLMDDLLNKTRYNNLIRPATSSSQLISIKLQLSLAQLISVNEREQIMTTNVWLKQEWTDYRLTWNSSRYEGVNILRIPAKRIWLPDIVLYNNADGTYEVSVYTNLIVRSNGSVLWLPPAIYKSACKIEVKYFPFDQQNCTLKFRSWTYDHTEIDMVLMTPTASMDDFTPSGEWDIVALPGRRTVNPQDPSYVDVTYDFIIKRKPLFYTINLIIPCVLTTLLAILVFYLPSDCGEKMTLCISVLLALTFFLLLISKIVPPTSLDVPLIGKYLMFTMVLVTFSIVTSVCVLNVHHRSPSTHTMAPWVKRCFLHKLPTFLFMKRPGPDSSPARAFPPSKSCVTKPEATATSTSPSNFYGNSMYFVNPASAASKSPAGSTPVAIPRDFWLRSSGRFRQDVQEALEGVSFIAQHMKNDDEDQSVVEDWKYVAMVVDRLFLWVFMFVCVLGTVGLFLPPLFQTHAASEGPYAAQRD
Description: Human cell line HEK293 were designed to express human nicotinic acetylcholine receptor α3β4 (nACHR α3β4), which is a receptor associated with sensory irritation. These cells were plated on 96 well plates and acyl nornicotines were co-applied with a concentration of nicotine sufficient to yield 100% cell activation of the receptor. The influx of calcium into the cell is measured as an indicator of receptor activation.

[5] = tested on: tracheal potassium chloride (KCl) response; assay: KCl triggered CGRP release in mouse tracheal tissue (control); format: cell-based; conditions: 10 μM compound, KCl 60 mM, FIG. 3
Description: As in FIG. 2, mouse tracheal tissue samples are treated with N-Hexanoylnornicotine (10 μM) for 10 minutes. After five minutes of exposure, KCl (60 mM) is added to the tracheal tissue samples for the remaining five minutes N-Hexanoylnornicotine exposure. CGRP release is measured for 15 minutes starting at the time point of N-Hexanoylnornicotine exposure. Control samples are exposed to KCl (60 mM) without the addition of N-Hexanoylnornicotine.
as §1

[6] = HEK293 nACHR α3β4, calcium influx

calcium influx inhibited ([4]; 1:1 acyl nornicotine:nicotine) [%] | IC50 ([4]; HEK293 nACHR α3β4, calcium influx, v 70 μM nicotine, read-out: Inhibition (IC50 v 70 μM nicotine)) [nM] | SMILES | sensation from the compound itself on the tongue ([1]; applied on filter paper for 2 minutes, human volunteers) | irritation/burn from nicotine after pre-treatment ([1]; compound at 10% of the level of the nicotine challenge, versus water side) | effect on specific tracheal nicotinic response (CGRP release) ([2]; 100 μM compound, Nicotine 100 μM, equimolar, FIG. 6) | effect on basal tracheal response (CGRP release) ([2]; 100 μM compound, before nicotine, FIG. 6) | effect on specific and supramaximal tracheal nicotine response (CGRP release) ([2]; 10 mM compound, Nicotine 10 mM, equimolar, FIG. 7) | relative potency, C8 versus C6 acyl nornicotine ([2]; CGRP release in mouse tissue (tracheal/buccal not specified)) | effect on buccal nicotine response (CGRP release) [3] | IC50 [4] [nM] | calcium influx inhibited ([4]; 1:10 acyl nornicotine:nicotine) [%] | calcium influx inhibited ([4]; 1:100 acyl nornicotine:nicotine) [%] | Activation (threshold) [4, 6] [mM] | relative potency, C8 versus C6 acyl nornicotine ([4]; calcium influx, co-applied with nicotine) | effect on specific tracheal nicotine response (CGRP release) ([2]; 10 μM compound, Nicotine 100 μM, FIG. 2) | effect on tracheal supramaximal nicotine response (TRPA1/V1 mediated, CGRP release) ([2]; 10 μM compound, Nicotine 10 mM, FIG. 4) | effect on buccal supramaximal nicotine response (TRPA1/V1 mediated, CGRP release) ([3]; 10 μM compound, Nicotine 10 mM, FIG. 5) | effect on tracheal KCl response (CGRP release) [5]
 |  | CCCCCCCC(=O)N1CCCC1c1cccnc1 (stereo not drawn) [N-Octanoylnornicotine] | tingling or burning sensation | obvious reduction in irritation/burn | abrogates the specific tracheal nicotinic response | lowers basal tracheal nicotine response | abrogates the specific and supramaximal nicotine response | more potent than a shorter chain (C6) acyl nornicotine | prevent the buccal nicotine response | 500 | 100 | 50 | 1 | more potent than shorter chain (C6) acyl nornicotine |  |  |  | 
100 | 5000 | CCCCCC(=O)N1CCCC1c1cccnc1 (stereo not drawn) [N-Hexanoylnornicotine] |  |  |  |  |  |  | prevent the buccal nicotine response |  | 50 |  | 10 |  | abolishes the specific tracheal nicotine response | does not change the tracheal supramaximal nicotine response | does not change the buccal supramaximal nicotine response | does not change the KCl response
